From patent US9701709B2 (REATA PHARMACEUTICALS, INC., priority 2012, dated 2017)
Like-named read-outs stand apart in the source and are kept apart here.

Columns and labels:
[1] = test system: human NQO1 ARE (Nrf2) in HuH-7 human hepatoma cells; test: NQO1-ARE luciferase reporter in HuH-7; format: cell-based; details: 15.6 nM, 18 h
Text: The first luciferase reporter tested was under the control of a single ARE derived from the promoter of the human NQO1 gene, which allows for quantitative assessment of the endogenous activity of the Nrf2 transcription factor in cultured mammalian cells. […] The NQO1-ARE-luciferase reporter plasmid was constructed by inserting the human NQO1-ARE ([NT] ID NO: 31) into the pLuc-MCS vector using HindIII/XhoI cloning sites (GenScript Corp., Piscataway, N.J.). […] Firefly and Renilla luciferase activity was assayed by Dual-Glo Luciferase Assay (cat # E2920, Promega), and the luminescence signal was measured on an L-Max II luminometer (Molecular Devices). Firefly luciferase activity was normalized to the Renilla activity, and fold induction over a vehicle control (DMSO) of normalized Firefly activity was calculated. […] Values represent the average of three independent experiments.

[2] = test system: TNF-α-induced NF-κB activation in A549/NF-κB-Luc cells; test: TNF-α-induced NF-κB luciferase reporter in A549/NF-κB-Luc; format: cell-based; details: Homo sapiens
Text: (b) TNF-α-induced activation of an NF-κB luciferase reporter in the human A549 cell line.
NF-κB is a transcription factor that plays a central role in the regulation of many immune and inflammatory responses. […] The NIH3T3/NF-κB-luc cell line maintains a chromosomal integration of a Firefly luciferase reporter construct regulated by eight copies of the NF-κB response element. The effects of these compounds can be quantified by measuring the value of the NF-κB IC50.

[3] = test system: STAT3 phosphorylation in HeLa cells; test: IL-6-induced STAT3 phosphorylation in HeLa; format: cell-based, human; details: 1 μM, 6 h pretreatment
[4] = test system: lactate in C2Cl2 muscle cells; test: Lactate levels in C2Cl2 myotubes; format: cell-based, rodent; details: differentiated C2Cl2 myotubes; 1 μM or 2 μM, 3 h
Method: Buffer was removed and saved for measurement of extracellular lactate levels. Cell debris was pelleted by centrifugation (10 min at 14,000 rpm) prior to measurement of lactate. To measure intracellular lactate, cells were suspended in 0.1% Triton X-100 in PBS and lysed by shearing with a 25 gauge needle. Cell lysate was centrifuged (10 min at 14,000 rpm, 4° C.) and lactate was measured in the supernatant. Intracellular and extracellular lactate was measured using the Lactate Assay Kit (BioVision, Catalog # K607-100).

[5] = test system: pulmonary function; test: Pulmonary evaluation in rats; format: in vivo, rat; details: single oral dose up to and including 30 mg/kg
Method: One additional group of 8 animals/sex served as the control and received vehicle (sesame oil).
Observations for mortality, morbidity, injury, and availability of food and water were conducted twice daily for all animals. Clinical observations were conducted prior to dosing, approximately 4 h post-dose, and following completion of the 8-h pulmonary monitoring period. […] Pulmonary function (respiratory rate, tidal volume, and minute volume) was monitored for at least 1 h prior to dosing to establish a baseline and for at least 8 h post-dose.

[6] = Oral pharmacokinetics in rats; format: in vivo, rat; details: oral suspension, 10 to 100 mg/kg
Method: (§1) Measurements were performed on TQD and QToF mass spectrometers (Waters).
(§2) Following oral administration of a suspension formulation at doses of 10 to 100 mg/kg, maximal concentrations were observed within 1 to 2 h in mice, and within 1 to 24 h in rats and monkeys.

[7] = Oral pharmacokinetics in monkeys; format: in vivo, monkey; details: oral suspension, 10 to 100 mg/kg
Method: as §1, §2

[8] = Metabolism in monkey liver microsomes; format: in vitro ADME; details: 60-min incubation, NADPH and UGT
[9] = target: CYP2C19 (Homo sapiens, UniProt P33261); test: CYP450 inhibition in pooled human liver microsomes, CYP2C19; format: in vitro ADME; details: highest concentration tested (3 μM)
Text: In addition, there was little or no evidence of metabolism-dependent inhibition of any of the enzymes tested.

[10] = test system: micronucleated polychromatic erythrocytes; test: In vivo micronucleus study
[11] = test system: rat GSTA2 ARE (Nrf2) in AREc32 reporter cell line; test: GSTA2-ARE luciferase reporter in AREc32; details: 15.6 nM, 18 h
[12] = test system: radiation-induced oral mucositis; test: Radiation-induced oral mucositis in hamsters
[13] = Plasma protein binding (ultracentrifugation), human

Sequence of CYP2C19 (P33261 whole entry): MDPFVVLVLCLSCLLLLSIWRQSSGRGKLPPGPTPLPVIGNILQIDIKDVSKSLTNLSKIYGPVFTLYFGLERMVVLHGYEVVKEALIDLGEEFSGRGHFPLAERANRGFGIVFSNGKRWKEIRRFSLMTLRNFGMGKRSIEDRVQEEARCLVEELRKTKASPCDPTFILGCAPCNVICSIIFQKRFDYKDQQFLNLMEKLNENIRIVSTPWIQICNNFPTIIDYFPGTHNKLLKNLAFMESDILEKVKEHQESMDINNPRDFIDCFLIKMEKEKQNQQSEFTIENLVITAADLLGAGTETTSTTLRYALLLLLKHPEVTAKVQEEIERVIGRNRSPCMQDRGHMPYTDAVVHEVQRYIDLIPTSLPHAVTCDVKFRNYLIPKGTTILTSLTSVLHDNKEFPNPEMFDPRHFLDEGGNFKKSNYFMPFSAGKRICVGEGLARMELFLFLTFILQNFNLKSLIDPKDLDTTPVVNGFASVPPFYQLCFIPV

CC1(C)CC[C@]2(NC(=O)C(C)(F)F)CC[C@]3(C)[C@H](C(=O)C=C4[C@@]5(C)C=C(C#N)C(=O)C(C)(C)[C@@H]5CC[C@]43C)[C@@H]2C1 [RTA 408, N-((4aS,6aR,6bS,8aR,12aS,14aR,14bS)-11-cyano-2,2,6a,6b,9,9,12a-heptamethyl-10,14-dioxo-1,2,3,4,4a,5,6,6a,6b,7,8,8a,9,10,12a,14,14a,14b-octadecahydropicen-4a-yl)-2,2-difluoropropanamide]
Induction of luciferase activity, NQO1-ARE reporter [1]: ~2 fold | IC50 ([2]; not viability normalized, read-out: NF-κB IC50, human A549 cell line (further experimentation)): 1700 nM | IC50 ([2]; read-out: NF-κB IC50, human A549 cell line, viability normalized): 1700 nM | IL-6-induced phosphorylation of STAT3 [3]: inhibited phosphorylation of STAT3 induced by IL-6 | Intracellular and extracellular lactate levels [4]: significantly increased intracellular and extracellular lactate levels in a dose-dependent manner | Pulmonary endpoints (respiratory rate, tidal volume, minute volume) [5]: did not produce any adverse effects | Time of maximal concentrations [6]: 1 to 24 h | Time of maximal concentrations [7]: 1 to 24 h | Parent molecule remaining [8]: < 10% | inhibition at 3 µM [9]: < 50% | Change from Control (%) ([10]; 125 mg/kg, 24-h timepoint): −8% | Number of MPCE/1000 PCE (Mean +/− SD) ([10]; 125 mg/kg, 24-h timepoint): 0.3 ± 0.27 | Number of MPCE/PCE Scored ([10]; 125 mg/kg, 24-h timepoint): 3/10000 | PCE/Total Erythrocytes (Mean +/− SD) ([10]; 125 mg/kg, 24-h timepoint): 0.543 ± 0.03 | Change from Control (%) ([10]; 125 mg/kg, 48-h timepoint): −14% | Number of MPCE/1000 PCE (Mean +/− SD) ([10]; 125 mg/kg, 48-h timepoint): 0.2 ± 0.27 | Number of MPCE/PCE Scored ([10]; 125 mg/kg, 48-h timepoint): 2/10000 | PCE/Total Erythrocytes (Mean +/− SD) ([10]; 125 mg/kg, 48-h timepoint): 0.453 ± 0.03 | Change from Control (%) ([10]; 250 mg/kg, 24-h timepoint): −12% | Number of MPCE/1000 PCE (Mean +/− SD) ([10]; 250 mg/kg, 24-h timepoint): 0.3 ± 0.27 | Number of MPCE/PCE Scored ([10]; 250 mg/kg, 24-h timepoint): 3/10000 | PCE/Total Erythrocytes (Mean +/− SD) ([10]; 250 mg/kg, 24-h timepoint): 0.520 ± 0.06 | Change from Control (%) ([10]; 250 mg/kg, 48-h timepoint): −26% | Number of MPCE/1000 PCE (Mean +/− SD) ([10]; 250 mg/kg, 48-h timepoint): 0.2 ± 0.27 | Number of MPCE/PCE Scored ([10]; 250 mg/kg, 48-h timepoint): 2/10000 | PCE/Total Erythrocytes (Mean +/− SD) ([10]; 250 mg/kg, 48-h timepoint): 0.391 ± 0.02 | Change from Control (%) ([10]; 500 mg/kg, 24-h timepoint): −28% | Number of MPCE/1000 PCE (Mean +/− SD) ([10]; 500 mg/kg, 24-h timepoint): 0.0 ± 0.00 | Number of MPCE/PCE Scored ([10]; 500 mg/kg, 24-h timepoint): 0/10000 | PCE/Total Erythrocytes (Mean +/− SD) ([10]; 500 mg/kg, 24-h timepoint): 0.426 ± 0.07 | Change from Control (%) ([10]; 500 mg/kg, 48-h timepoint): −36% | Number of MPCE/1000 PCE (Mean +/− SD) ([10]; 500 mg/kg, 48-h timepoint): 0.3 ± 0.45 | Number of MPCE/PCE Scored ([10]; 500 mg/kg, 48-h timepoint): 3/10000 | PCE/Total Erythrocytes (Mean +/− SD) ([10]; 500 mg/kg, 48-h timepoint): 0.339 ± 0.05 | Change from Control (%) ([10]; 1000 mg/kg, 24-h timepoint): −15% | Number of MPCE/1000 PCE (Mean +/− SD) ([10]; 1000 mg/kg, 24-h timepoint): 0.2 ± 0.27 | Number of MPCE/PCE Scored ([10]; 1000 mg/kg, 24-h timepoint): 2/10000 | PCE/Total Erythrocytes (Mean +/− SD) ([10]; 1000 mg/kg, 24-h timepoint): 0.498 ± 0.05 | Change from Control (%) ([10]; 1000 mg/kg, 48-h timepoint): −35% | Number of MPCE/1000 PCE (Mean +/− SD) ([10]; 1000 mg/kg, 48-h timepoint): 0.1 ± 0.22 | Number of MPCE/PCE Scored ([10]; 1000 mg/kg, 48-h timepoint): 1/10000 | PCE/Total Erythrocytes (Mean +/− SD) ([10]; 1000 mg/kg, 48-h timepoint): 0.344 ± 0.04 | Change from Control (%) ([10]; 1500 mg/kg, 24-h timepoint): −15% | Number of MPCE/1000 PCE (Mean +/− SD) ([10]; 1500 mg/kg, 24-h timepoint): 0.4 ± 0.22 | Number of MPCE/PCE Scored ([10]; 1500 mg/kg, 24-h timepoint): 4/10000 | PCE/Total Erythrocytes (Mean +/− SD) ([10]; 1500 mg/kg, 24-h timepoint): 0.499 ± 0.06 | Change from Control (%) ([10]; 1500 mg/kg, 48-h timepoint): −39% | Number of MPCE/1000 PCE (Mean +/− SD) ([10]; 1500 mg/kg, 48-h timepoint): 0.4 ± 0.42 | Number of MPCE/PCE Scored ([10]; 1500 mg/kg, 48-h timepoint): 4/10000 | PCE/Total Erythrocytes (Mean +/− SD) ([10]; 1500 mg/kg, 48-h timepoint): 0.376 ± 0.05 | Change from Control (%) ([10]; 2000 mg/kg, 24-h timepoint): −10% | Number of MPCE/1000 PCE (Mean +/− SD) ([10]; 2000 mg/kg, 24-h timepoint): 0.2 ± 0.27 | Number of MPCE/PCE Scored ([10]; 2000 mg/kg, 24-h timepoint): 2/10000 | PCE/Total Erythrocytes (Mean +/− SD) ([10]; 2000 mg/kg, 24-h timepoint): 0.531 ± 0.05 | Change from Control (%) ([10]; 2000 mg/kg, 48-h timepoint): −32% | Number of MPCE/1000 PCE (Mean +/− SD) ([10]; 2000 mg/kg, 48-h timepoint): 0.1 ± 0.22 | Number of MPCE/PCE Scored ([10]; 2000 mg/kg, 48-h timepoint): 1/10000 | PCE/Total Erythrocytes (Mean +/− SD) ([10]; 2000 mg/kg, 48-h timepoint): 0.360 ± 0.03 | Genotoxicity in the In Vivo Micronucleus Study ([10]; 125-2000 mg/kg, 24-h and 48-h timepoints): 63415 is Negative for Genotoxicity in the In Vivo Micronucleus Study | Induction of luciferase activity, GSTA2-ARE reporter [11]: ~2 fold | Reduction in ulceration ([12]; 30 mg/kg and 100 mg/kg BID×20): ≤ 36% | Euthanasia due to weight loss in excess of 20% ([12]; 100 mg/kg): two out of eight hamsters in the 100 mg/kg dose group were euthanized on Day 2 | Duration of ulcerative mucositis ([12]; 30 and 100 mg/kg twice daily): significant reduction in the duration of ulcerative mucositis | fraction unbound [13]: 0.03
